# From patent US20100104659A1, “BENZOPYRANOPYRAZOLES” (priority 2006, published 2010)
# Test system: RKO human colon adenocarcinoma cells (RKOp27 subclone), proliferating
# Assay: Alamar Blue cell viability assay, RKO p27 uninduced (proliferating)
# Details: RKOp27, 72 h, read-out: −log EC50 [mol/l] RKO p27 uninduced (proliferating), anti-proliferative/cytotoxic activity (converted)
# Experimental: The anti-proliferative/cytotoxic activity of the compounds described herein can be tested on subclones of RKO human colon adenocarcinoma cells (Schmidt et al., Oncogene 19, 2423-2429; 2000) using the Alamar Blue cell viability assay (described in O'Brien et al. Eur J Biochem 267, 5421-5426, 2000). The compounds are dissolved as 10 mM solutions in DMSO and subsequently diluted in semi-logarithmic steps. DMSO dilutions are further diluted 1:100 into Dulbecco's modified Eagle's medium (DMEM) containing 10% fetal calf serum to a final concentration twice as much as the final concentration in the test. RKO subclones are seeded into 96 well flat bottom plates at a density of 4000 cells per well in a volume of 50 μl per well. 24 hours after seeding the 50 μl each of the compound dilutions in DMEM medium are added into each well of the 96 well plate. Each compound dilution is tested as triplicates. Wells containing untreated control cells are filled with 50 μl DMEM medium containing 1% DMSO. The cells are then incubated with the substances for 72 hours at 37° C. in a humidified atmosphere containing 5% carbon dioxide. To determine the viability of the cells, 10 μl of an Alamar Blue solution (Biosource) are added and the fluorescence is measured at an extinction of 544 nm and an emission of 590 nm. For the calculation of the cell viability the emission value from untreated cells is set as 100% viability and the emission rates of treated cells are set in relation to the values of untreated cells. Viabilities are expressed as % values. The Graphpad Prism program (GraphPad Software, Inc) is used for the calculation of EC50 values for anti-proliferative/cytotoxic activity out of the obtained dose-response curves.
# Each compound dilution is tested as triplicates. Wells containing untreated control cells are filled with 50 μl DMEM medium containing 1% DMSO. The cells are then incubated with the substances for 72 hours at 37° C. in a humidified atmosphere containing 5% carbon dioxide. To determine the viability of the cells, 10 μl of an Alamar Blue solution (Biosource) are added and the fluorescence is measured at an extinction of 544 nm and an emission of 590 nm. For the calculation of the cell viability the emission value from untreated cells is set as 100% viability and the emission rates of treated cells are set in relation to the values of untreated cells. Viabilities are expressed as % values. The Graphpad Prism program is used for the calculation of EC50 values out of the obtained dose-response curves. Viability is compared of proliferating cells grown in the absence of the inducer Ponasterone A, versus viability of cells arrested by the expression of ectopic p27Kip1 induced by Ponasterone A.
row,SMILES,EC50 [nM]
1,"CN(C(=O)N1N=C2c3cc(F)ccc3OCC2C1c1ccccc1)C1CCCNC1 (mixture of isomers) [Example 25, (3RS,3aRS)-8-Fluoro-3-phenyl-3a,4-dihydro-3H-chromeno[4,3-c]pyrazole-2-carboxylic acid (R)-methyl-piperidin-3-yl-amide and (3RS,3aRS)-8-Fluoro-3-phenyl-3a,4-dihydro-3H-chromeno[4,3-c]pyrazole-2-carboxylic acid (S)-methyl-piperidin-3-yl-amide]",≤ 100
2,"CN(C)C(=O)N1N=C2c3cc(F)ccc3OC[C@H]2[C@@H]1c1cccc(O)c1 (racemic) [Example 1, (3RS,3aSR)-8-Fluoro-3-(3-hydroxy-phenyl)-3a,4-dihydro-3H-chromeno[4,3-c]pyrazole-2-carboxylic acid dimethylamide]",100 to 1000
3,"CN(C)C(=O)N1N=C2c3cc(F)ccc3OC[C@@H]2[C@@H]1c1cccc(O)c1 (racemic) [Example 2, (3RS,3aRS)-8-Fluoro-3-(3-hydroxy-phenyl)-3a,4-dihydro-3H-chromeno[4,3-c]pyrazole-2-carboxylic acid dimethylamide]",100 to 1000
4,"CN(C)CCN(C)C(=O)N1N=C2c3cc(F)ccc3OC[C@@H]2[C@@H]1c1cccc(O)c1 (racemic) [Example 4, (3RS,3aRS)-8-Fluoro-3-(3-hydroxy-phenyl)-3a,4-dihydro-3H-chromeno[4,3-c]pyrazole-2-carboxylic acid (2-dimethylamino-ethyl)-methyl-amide]",≤ 100
5,"CN1CCC(N(C(=O)N2N=C3c4cc(F)ccc4OC[C@@H]3[C@@H]2c2cccc(O)c2)C2CC2)CC1 (racemic) [Example 5, (3RS,3aRS)-8-Fluoro-3-(3-hydroxy-phenyl)-3a,4-dihydro-3H-chromeno[4,3-c]pyrazole-2-carboxylic acid cyclopropyl-(1-methyl-piperidin-4-yl)-amide]",100 to 1000
6,"CN(C)CCCN(C)C(=O)N1N=C2c3cc(F)ccc3OC[C@@H]2[C@@H]1c1cccc(O)c1 (racemic) [Example 6, (3RS,3aRS)-8-Fluoro-3-(3-hydroxy-phenyl)-3a,4-dihydro-3H-chromeno[4,3-c]pyrazole-2-carboxylic acid (3-dimethylamino-propyl)-methyl-amide]",≤ 100
7,"CN1CCC(N(C)C(=O)N2N=C3c4cc(F)ccc4OC[C@@H]3[C@@H]2c2ccccc2)CC1 (racemic) [Example 9, (3RS,3aRS)-8-Fluoro-3-phenyl-3a,4-dihydro-3H-chromeno[4,3-c]pyrazole-2-carboxylic acid methyl-(1-methyl-piperidin-4-yl)-amide]",≤ 100
8,"CCN(CCN(C)C)C(=O)N1N=C2c3cc(F)ccc3OC[C@@H]2[C@@H]1c1ccccc1 (racemic) [Example 10, (3RS,3aRS)-8-Fluoro-3-phenyl-3a,4-dihydro-3H-chromeno[4,3-c]pyrazole-2-carboxylic acid (2-dimethylamino-ethyl)-ethyl-amide]",≤ 100
9,"CN(C)CCCN(C)C(=O)N1N=C2c3cc(F)ccc3OC[C@@H]2[C@@H]1c1ccccc1 (racemic) [Example 11, (3RS,3aRS)-8-Fluoro-3-phenyl-3a,4-dihydro-3H-chromeno[4,3-c]pyrazole-2-carboxylic acid (3-dimethylamino-propyl)-methyl-amide]",≤ 100
10,"CC(C)CN(C)C(=O)N1N=C2c3cc(F)ccc3OC[C@@H]2[C@@H]1c1ccccc1 (racemic) [Example 12, (3RS,3aRS)-8-Fluoro-3-phenyl-3a,4-dihydro-3H-chromeno[4,3-c]pyrazole-2-carboxylic acid isobutyl-methyl-amide]",100 to 1000
11,"CN1CCC(N(C(=O)N2NC3c4cc(F)ccc4OC[C@H]3[C@@H]2c2ccccc2)C2CC2)CC1 (mixture of isomers) [Example 15, (3RS,3aRS)-8-Fluoro-3-phenyl-1,3a,4,9b-tetrahydro-3H-chromeno[4,3-c]pyrazole-2-carboxylic acid cyclopropyl-(1-methyl-piperidin-4-yl)-amide]",≤ 100
12,"CN(C)CCN(C)C(=O)N1N=C2c3cc(F)ccc3OC[C@@H]2[C@@H]1c1ccccc1 (racemic) [Example 19, (3RS,3aRS)-8-Fluoro-3-phenyl-3a,4-dihydro-3H-chromeno[4,3-c]pyrazole-2-carboxylic acid (2-dimethylamino-ethyl)-methyl-amide]",≤ 100
13,"CN(CCCN)C(=O)N1N=C2c3cc(F)ccc3OC[C@@H]2[C@@H]1c1ccccc1 (racemic) [Example 20, (3RS,3aRS)-8-Fluoro-3-phenyl-3a,4-dihydro-3H-chromeno[4,3-c]pyrazole-2-carboxylic acid (3-amino-propyl)-methyl-amide]",100 to 1000
14,"CNCCCN(C)C(=O)N1N=C2c3cc(F)ccc3OC[C@@H]2[C@@H]1c1ccccc1 (racemic) [Example 22, (3RS,3aRS)-8-Fluoro-3-phenyl-3a,4-dihydro-3H-chromeno[4,3-c]pyrazole-2-carboxylic acid methyl-(3-methylamino-propyl)-amide]",≤ 100
15,"CNCCN(C)C(=O)N1N=C2c3cc(F)ccc3OC[C@@H]2[C@@H]1c1ccccc1 (racemic) [Example 23, (3RS,3aRS)-8-Fluoro-3-phenyl-3a,4-dihydro-3H-chromeno[4,3-c]pyrazole-2-carboxylic acid methyl-(2-methylamino-ethyl)-amide]",100 to 1000
16,"CN(C(=O)N1N=C2c3cc(F)ccc3OC[C@@H]2[C@@H]1c1cccc(O)c1)C1CCNCC1 (racemic) [Example 27, (3RS,3aRS)-8-Fluoro-3-(3-hydroxy-phenyl)-3a,4-dihydro-3H-chromeno[4,3-c]pyrazole-2-carboxylic acid methyl-piperidin-4-yl-amide]",≤ 100
17,"CN(CCN1CCCC1)C(=O)N1N=C2c3cc(F)ccc3OC[C@@H]2[C@@H]1c1ccccc1 (racemic) [Example 28, (3RS,3aRS)-8-Fluoro-3-phenyl-3a,4-dihydro-3H-chromeno[4,3-c]pyrazole-2-carboxylic acid methyl-(2-pyrrolidin-1-yl-ethyl)-amide]",100 to 1000
18,"CC(=O)N1CCN(CCN(C)C(=O)N2N=C3c4cc(F)ccc4OC[C@@H]3[C@@H]2c2ccccc2)CC1 (racemic) [Example 29, (3RS,3aRS)-8-Fluoro-3-phenyl-3a,4-dihydro-3H-chromeno[4,3-c]pyrazole-2-carboxylic acid [2-(4-acetyl-piperazin-1-yl)-ethyl]methyl-amide]",100 to 1000
19,"CN(CCCN1CCCC1)C(=O)N1N=C2c3cc(F)ccc3OC[C@H]2[C@H]1c1ccccc1 (racemic) [Example 34, (3SR,3aSR)-8-Fluoro-3-phenyl-3a,4-dihydro-3H-chromeno[4,3-c]pyrazole-2-carboxylic acid methyl-(3-pyrrolidin-1-yl-propyl)-amide]",≤ 100
20,"CC(=O)N1CCN(CCCN(C)C(=O)N2N=C3c4cc(F)ccc4OC[C@H]3[C@H]2c2ccccc2)CC1 (racemic) [Example 35, (3SR,3aSR)-8-Fluoro-3-phenyl-3a,4-dihydro-3H-chromeno[4,3-c]pyrazole-2-carboxylic acid [3-(4-acetyl-piperazin-1-yl)-propyl]-methyl-amide]",100 to 1000
21,"CN(CCN1CCCCC1)C(=O)N1N=C2c3cc(F)ccc3OC[C@H]2[C@H]1c1ccccc1 (racemic) [Example 36, (3SR,3aSR)-8-Fluoro-3-phenyl-3a,4-dihydro-3H-chromeno[4,3-c]pyrazole-2-carboxylic acid methyl-(2-piperidin-1-yl-ethyl)-amide]",100 to 1000
22,"CN(CCCN1CCCCC1)C(=O)N1N=C2c3cc(F)ccc3OC[C@H]2[C@H]1c1ccccc1 (racemic) [Example 37, (3SR,3aSR)-8-Fluoro-3-phenyl-3a,4-dihydro-3H-chromeno[4,3-c]pyrazole-2-carboxylic acid methyl-(3-piperidin-1-yl-propyl)-amide]",≤ 100
23,"CN(CCCN1CCC1)C(=O)N1N=C2c3cc(F)ccc3OC[C@H]2[C@H]1c1ccccc1 (racemic) [Example 38, (3SR,3aSR)-8-Fluoro-3-phenyl-3a,4-dihydro-3H-chromeno[4,3-c]pyrazole-2-carboxylic acid (3-azetidin-1-yl-propyl)-methyl-amide]",≤ 100
24,"CC(C)NCCN(C)C(=O)N1N=C2c3cc(F)ccc3OC[C@H]2[C@H]1c1ccccc1 (racemic) [Example 39, (3SR,3aSR)-8-Fluoro-3-phenyl-3a,4-dihydro-3H-chromeno[4,3-c]pyrazole-2-carboxylic acid (2-isopropylamino-ethyl)-methyl-amide]",≤ 100
25,"CN(CCNC(C)(C)C)C(=O)N1N=C2c3cc(F)ccc3OC[C@H]2[C@H]1c1ccccc1 (racemic) [Example 40, (3SR,3aSR)-8-Fluoro-3-phenyl-3a,4-dihydro-3H-chromeno[4,3-c]pyrazole-2-carboxylic acid (2-tert-butylamino-ethyl)-methyl-amide]",≤ 100
26,"CC(C)CNCCN(C)C(=O)N1N=C2c3cc(F)ccc3OC[C@H]2[C@H]1c1ccccc1 (racemic) [Example 41, (3SR,3aSR)-8-Fluoro-3-phenyl-3a,4-dihydro-3H-chromeno[4,3-c]pyrazole-2-carboxylic acid (2-isobutylamino-ethyl)-methyl-amide]",≤ 100
27,"CC(C)CNCCCN(C)C(=O)N1N=C2c3cc(F)ccc3OC[C@H]2[C@H]1c1ccccc1 (racemic) [Example 42, (3SR,3aSR)-8-Fluoro-3-phenyl-3a,4-dihydro-3H-chromeno[4,3-c]pyrazole-2-carboxylic acid (3-isobutylamino-propyl)-methyl-amide]",100 to 1000
28,"CN(CCCNC(C)(C)C)C(=O)N1N=C2c3cc(F)ccc3OC[C@H]2[C@H]1c1ccccc1 (racemic) [Example 43, (3SR,3aSR)-8-Fluoro-3-phenyl-3a,4-dihydro-3H-chromeno[4,3-c]pyrazole-2-carboxylic acid (3-tert-butylamino-propyl)-methyl-amide]",100 to 1000
29,"CN(CCNC1CCC1)C(=O)N1N=C2c3cc(F)ccc3OC[C@H]2[C@H]1c1ccccc1 (racemic) [Example 44, (3SR,3aSR)-8-Fluoro-3-phenyl-3a,4-dihydro-3H-chromeno[4,3-c]pyrazole-2-carboxylic acid (2-cyclobutylamino-ethyl)-methyl-amide]",≤ 100
